Consider five compounds from ChEMBL document CHEMBL1150831, “Immunosuppressive sesquiterpene alkaloids from Tripterygium wilfordii” (2001).

The structures appear in SMILES notation. Activity calls are given as the source filed them. The calls are words filed in the database; no cut-off is given here.

Holding throughout (format): functional
Assay [1] has as its system PBMC. The experiment in a line: Immunosuppressive activity in human PBMC assessed as inhibition of LPS-stimulated TNFalpha production at 0.3 ug/mL after 18 to 24 hrs by ELISA.
Assay [2] has as its system PBMC. Nature of the assay: Immunosuppressive activity in human PBMC assessed as inhibition of LPS-stimulated IL1-beta production at 0.3 ug/mL after 18 to 24 hrs by ELISA.
The test system of assay [3] is PBMC. Nature of the assay: Immunosuppressive activity in human PBMC assessed as inhibition of LPS-stimulated IL8 production at 0.3 ug/mL after 18 to 24 hrs by ELISA.
Assay [4] deals with PBMC. The experiment in a line: Immunosuppressive activity in human PBMC assessed as inhibition of LPS-stimulated IL2 production at 0.3 ug/mL after 18 to 24 hrs by ELISA.
Assay [5] has as its system PBMC. The experiment in a line: Immunosuppressive activity in human PBMC assessed as inhibition of LPS-stimulated IL4 production at 0.3 ug/mL after 18 to 24 hrs by ELISA.
Assay [6] has as its system PBMC. The experiment in a line: Immunosuppressive activity in human PBMC assessed as inhibition of LPS-stimulated IFN-gamma production at 0.3 ug/mL after 18 to 24 hrs by ELISA.
In assay [7] the test system is PBMC. Nature of the assay: Immunosuppressive activity in human PBMC assessed as inhibition of LPS-stimulated TNFalpha production at 10 ug/mL after 18 to 24 hrs by ELISA.
The test system of assay [8] is PBMC. The experiment in a line: Immunosuppressive activity in human PBMC assessed as inhibition of LPS-stimulated IL1-beta production at 10 ug/mL after 18 to 24 hrs by ELISA.
The subject of assay [9] is PBMC. Nature of the assay: Immunosuppressive activity in human PBMC assessed as inhibition of LPS-stimulated IL8 production at 10 ug/mL after 18 to 24 hrs by ELISA.
For assay [10], the system named is PBMC. Nature of the assay: Immunosuppressive activity in human PBMC assessed as inhibition of LPS-stimulated IL2 production at 10 ug/mL after 18 to 24 hrs by ELISA.
For assay [11], the system named is PBMC. Nature of the assay: Immunosuppressive activity in human PBMC assessed as inhibition of LPS-stimulated IL4 production at 10 ug/mL after 18 to 24 hrs by ELISA.
Assay [12] concerns PBMC. Nature of the assay: Immunosuppressive activity in human PBMC assessed as inhibition of LPS-stimulated IFN-gamma production at 10 ug/mL after 18 to 24 hrs by ELISA.

As for `C[C@]12C=CC(=O)C=C1CC[C@@H]1[C@@H]2[C@@H](O)C[C@@]2(C)[C@H]1CC[C@]2(O)C(=O)CO` [PREDNISOLONE], the inhibition at 0.3 µg/mL in [1] turned out to be 52%; in [2], 68%; in assay [3] it was 15%; in assay [4], 65%; in [5], 76%; in assay [6], 75%.
For `CC(=O)OC[C@]12[C@H](OC(C)=O)[C@H](OC(C)=O)[C@@H]3[C@@H](OC(C)=O)[C@@]14O[C@@]3(C)COC(=O)c1cccnc1CC[C@H](C)C(=O)O[C@@H]([C@H](OC(=O)c1ccco1)[C@@H]2OC(C)=O)[C@]4(C)O`, the inhibition at 10 µg/mL in assay [7] is 64%; in [8], 53%; in assay [9], 7%; in assay [10], 22%; in assay [11] it was -53%; in assay [12], 4%.
For the compound `CC(=O)OC[C@]12[C@H](OC(C)=O)[C@H](OC(=O)c3cccnc3)[C@@H]3[C@@H](OC(C)=O)[C@@]14O[C@@]3(C)COC(=O)c1cccnc1C(C)C(C)C(=O)O[C@@H]([C@H](OC(C)=O)[C@@H]2OC(C)=O)[C@]4(C)O` (stereo not given in full), the inhibition result in [7], in assay [8], in assay [9], in [10], in [11] and in assay [12] was “inactive” each time.
As to `CC(=O)OC[C@]12[C@H](OC(C)=O)[C@H](OC(C)=O)[C@@H]3[C@@H](OC(C)=O)[C@@]14O[C@@]3(C)COC(=O)c1cccnc1CC[C@@](C)(O)C(=O)O[C@@H]([C@H](OC(=O)c1ccccc1)[C@@H]2OC(C)=O)[C@]4(C)O`, the inhibition at 10 µg/mL is 2% in assay [7]; -6% in assay [8]; 8% in assay [9]; 35% in [10]; 50% in assay [11]; 4% in [12].
As for `CC(=O)OC[C@]12[C@H](OC(C)=O)[C@H](OC(C)=O)[C@@H]3[C@@H](OC(=O)c4ccccc4)[C@@]14O[C@@]3(C)COC(=O)c1cccnc1C(C)C(C)C(=O)O[C@@H]([C@H](OC(C)=O)[C@@H]2OC(=O)c1ccccc1)[C@]4(C)O` (stereo not given in full), the inhibition at 10 µg/mL in assay [7] is 76%; in [8], 49%; in assay [9] it was 97%; in assay [10], 100%; in [11], 100%; in assay [12], 92%.
